The test system of one assay is NLRP3 inflammasome. The assay is described as follows: IL-1β release in PBMCs after NLRP3 inflammasome activation. The assay is classed as cell-based, human. The settings on record: for effect on IL-1β release (in words): all stimulatory conditions (MSU, nigericin, ATP), vs DMSO; for IL-1β reduction as compared to DMSO: compound 24 h, LPS 0.2 ng/ml 4 h. As to the method: Figure 3 Effect of […] mediated HDAC6 degradation on NLRP3 inflammasome activation in PBMCs.A, schematic of the mode of action of an HDAC6 degrader. The PROTAC engages both HDAC6 and the E3 ligase cereblon (CRBN), which then leads to ubiquitination and degradation of HDAC6. […] PBMCs (without or with LPS priming for 4 h) were treated with the indicated compounds and HDAC6 levels were detected by immunoblotting with an anti-HDAC6 antibody. Detection of actin was used as a control for loading. CGP, CGP084892 (Caspase-1 inhibitor); AFN700 is an inhibitor of the NF-kB pathway (IKK inhibitor). E, HDAC6 degradation impact on IL-1β release in PBMCs following MSU 200 μg/ml (5 h), nigericin 2 μM (2 h) or ATP 3 mM (0.5 h) treatment. Cells were first primed with 0.2 ng/ml LPS for 4 h at 37 °C, then treated with MSU, nigericin, and ATP as indicated.
Human IL-1β and IL-18 were determined with Cisbio HTRF Cisbio Human IL1β (#62HIL1BPET) and Human IL18 (#62HIL18PEG) protocols. All the data were from 3 or 4 independent biological replicates.
For BMDM cells, 1.5 × 10^6 cells per well were seeded in six-well plates. After priming with 1 μg/ml LPS (Invivogen #tlrl-b5lps), cells were challenged with 200 μg/ml MSU crystals (Invivogen #tlrl-msu-25) for 6 h or 20 μM nigericin (Sigma-Aldrich #N7143-5MG) for 30 min. […] The supernatant was removed, and fresh medium was added to have cells at a density of around 5 × 10^5 cells/ml. 100 μl cells were seeded in 96-well plate and incubated for 1∼2 days. During the culturing, dTAG was added when needed to degrade the DARPin. […] For PBMCs, 3 × 10^4 cells per were seeded, and primed with 0.2 ng/ml LPS for 4 h and then incubated with MSU 200 μg/ml (5 h), nigericin 2 μM (2 h) or ATP 3 mM (0.5 h). For pyrin inflammasome, U937-pyrin cells were seeded in 96 well after 0.5 μM PMA treatment for 3 h and then challenged by BAA473 (200 μM) for 4 h at 37 °C.

In another assay the test system is U937-pyrin cells. Put plainly: Cell viability (resazurin) of U937-pyrin cells, pyroptosis. The assay is classed as cell-based, human. As to conditions: BAA473 activation, resazurin assay. As to the method:
Cell viability of PBMCs and U937 cells was checked with PrestoBlue HS Cell Viability Reagent (Invitrogen # P50200) according to the manufacturer’s instructions. After incubation for 1 to 2 h, fluorescence was determined with a PheraStar plate reader under Ex/Em = 540/590 nm.
Supplementary file mmc1.pdf: Supporting Figure S1 BMDM cells were primed by LPS (1 μg/ml) for 4 hrs and then challenged with 20 μM nigericin. 50 μl supernatant was collected every 15 min (up to 90 min) and mIL-1β level was determined by HTRF assay. […] Supporting Figure S2: A, immunoblot of HDAC1, HDAC2 and HDAC6 protein level in WT THP-1 cells vs DMSO or dTAG treated F10-FKBP^F36V THP-1 cells. DARPin F10 was detected by anti-HA antibody. B, FKBP^F36V THP-1 cells were established for evaluating the possible effect of dTAG on IL-1β release. Cells were first treated with PMA (0.5 μM) for 3 hr, then medium was changed and vehicle or dTAG was added (1 μM), followed by 20 μM nigericin for 3 hr. Supporting Figure S3: A, CTG cell viability assay to analyze degrader XY-07-035 toxicity in HEK293T, Jurkat and U937 cells. Cells were treated with different concentrations of the degrader, and cell viability determined by CTG assay was normalized to the non-treated group. […] Supporting Figure S4: Cell viability was measured by resazurin assay, and fluorescence intensity was a representative of the viability.

“Also recorded” adds a separate entry of the source.

For the compound `CN(C(=O)CCCNc1cccc2c1C(=O)N(C1CCC(=O)NC1=O)C2=O)c1ccc(NC(=O)CCCCCCC(=O)NO)cc1` (stereo not shown) [XY-07-35], in the assay with NLRP3 inflammasome, the “effect on IL-1β release (in words)” value is given as “clearly reduced”. Also, the “IL-1β reduction as compared to DMSO” value in the assay with NLRP3 inflammasome (ATP 3 mM 0.5 h) is 40%; with NLRP3 inflammasome (MSU 200 μg/ml 5 h) it was “ca. 60%”; in the assay on NLRP3 inflammasome (nigericin 2 μM 2 h), 40%. Also, the “cell viability / protection from pyroptosis” value in the assay on U937-pyrin cells was “did not protect cells from pyroptosis; also recorded: No significant difference”.

As for `CN1C(=O)CCC(N2C(=O)c3cccc(NCCCC(=O)N(C)c4ccc(NC(=O)CCCCCCC(=O)NO)cc4)c3C2=O)C1=O` (stereo not shown) [XY-07-191], the “effect on IL-1β release (in words)” value in the assay with NLRP3 inflammasome is given as “partial inhibition”. Moreover, the “cell viability / protection from pyroptosis” value in the assay on U937-pyrin cells is given as “No significant difference”.
